In the NIST ThermoML archive (doi:10.1016/j.fluid.2010.10.028):

Assay: xn = mol fraction of the nth substance listed
Settings: Liquid, Vibrating tube method

CC(C)=O [acetone] + CCCCCCC
Settings	mass density [kg/m3]
337.69 K, 970 kPa, x1 = 0.801	700.39
337.69 K, 4850 kPa, x1 = 0.801	706.05
337.69 K, 9830 kPa, x1 = 0.7024	699.81
337.69 K, 9840 kPa, x1 = 0.492	680.33
337.69 K, 9870 kPa, x1 = 0.801	712.82
337.69 K, 14820 kPa, x1 = 0.7024	705.98
337.69 K, 14860 kPa, x1 = 0.801	719.01
337.69 K, 14870 kPa, x1 = 0.492	686.47
337.69 K, 19850 kPa, x1 = 0.801	724.74
337.69 K, 19870 kPa, x1 = 0.492	692.06
337.69 K, 24790 kPa, x1 = 0.7024	717.01
337.69 K, 24840 kPa, x1 = 0.492	697.27
337.69 K, 24840 kPa, x1 = 0.801	730.15
337.69 K, 29870 kPa, x1 = 0.492	702.18
337.69 K, 39870 kPa, x1 = 0.7024	731.35
337.69 K, 49840 kPa, x1 = 0.801	752.9
337.69 K, 64830 kPa, x1 = 0.801	764.19
337.69 K, 84730 kPa, x1 = 0.7024	763.81
337.69 K, 89820 kPa, x1 = 0.7024	766.84
337.69 K, 94820 kPa, x1 = 0.7024	769.76
337.69 K, 99820 kPa, x1 = 0.7024	772.57
337.69 K, 104830 kPa, x1 = 0.7024	775.31
337.69 K, 109800 kPa, x1 = 0.7024	777.96
337.69 K, 114820 kPa, x1 = 0.7024	780.54
337.69 K, 119800 kPa, x1 = 0.7024	783.06
337.69 K, 124820 kPa, x1 = 0.7024	785.53
337.69 K, 129820 kPa, x1 = 0.7024	787.95
337.7 K, 930 kPa, x1 = 0.7024	687.32
337.7 K, 960 kPa, x1 = 0.492	668.07
337.7 K, 4830 kPa, x1 = 0.7024	693.05
337.7 K, 4860 kPa, x1 = 0.611	683.33
337.7 K, 4870 kPa, x1 = 0.492	673.74
337.7 K, 9860 kPa, x1 = 0.611	690.06
337.7 K, 14890 kPa, x1 = 0.611	696.23
337.7 K, 19800 kPa, x1 = 0.7024	711.67
337.7 K, 19850 kPa, x1 = 0.611	701.87
337.7 K, 24870 kPa, x1 = 0.611	707.18
337.7 K, 29860 kPa, x1 = 0.611	712.16
337.7 K, 29890 kPa, x1 = 0.7024	722.13
337.7 K, 34850 kPa, x1 = 0.492	706.79
337.7 K, 34850 kPa, x1 = 0.611	716.83
337.7 K, 34850 kPa, x1 = 0.801	739.96
337.7 K, 34880 kPa, x1 = 0.7024	726.85
337.7 K, 39850 kPa, x1 = 0.492	711.17
337.7 K, 39860 kPa, x1 = 0.611	721.28
337.7 K, 39860 kPa, x1 = 0.801	744.5
337.7 K, 44850 kPa, x1 = 0.7024	735.58
337.7 K, 44850 kPa, x1 = 0.801	748.79
337.7 K, 44860 kPa, x1 = 0.611	725.53
337.7 K, 49840 kPa, x1 = 0.7024	739.64
337.7 K, 49850 kPa, x1 = 0.611	729.53
337.7 K, 49860 kPa, x1 = 0.492	719.29
337.7 K, 54830 kPa, x1 = 0.611	733.35
337.7 K, 54830 kPa, x1 = 0.7024	743.51
337.7 K, 54850 kPa, x1 = 0.492	723.05
337.7 K, 54850 kPa, x1 = 0.801	756.81
337.7 K, 59810 kPa, x1 = 0.7024	747.21
337.7 K, 59840 kPa, x1 = 0.801	760.56
337.7 K, 59850 kPa, x1 = 0.492	726.67
337.7 K, 59940 kPa, x1 = 0.611	737.16
337.7 K, 64800 kPa, x1 = 0.7024	750.79
337.7 K, 64840 kPa, x1 = 0.492	730.12
337.7 K, 64920 kPa, x1 = 0.611	740.68
337.7 K, 69780 kPa, x1 = 0.7024	754.21
337.7 K, 69840 kPa, x1 = 0.4	783.77
337.7 K, 69840 kPa, x1 = 0.8992	783.77
337.7 K, 69910 kPa, x1 = 0.611	744.03
337.7 K, 69930 kPa, x1 = 0.801	767.73
337.7 K, 74900 kPa, x1 = 0.611	747.3
337.7 K, 74910 kPa, x1 = 0.801	771.08
337.7 K, 79880 kPa, x1 = 0.611	750.44
337.7 K, 79880 kPa, x1 = 0.801	774.31
337.7 K, 84860 kPa, x1 = 0.611	753.48
337.7 K, 84870 kPa, x1 = 0.801	777.45
337.7 K, 89840 kPa, x1 = 0.611	756.41
337.7 K, 99810 kPa, x1 = 0.801	786.3
337.7 K, 109780 kPa, x1 = 0.801	791.8
337.7 K, 114850 kPa, x1 = 0.801	794.44
337.7 K, 119850 kPa, x1 = 0.611	772.4
337.7 K, 119860 kPa, x1 = 0.801	797.03
337.71 K, 950 kPa, x1 = 0.611	677.6
337.71 K, 1150 kPa, x1 = 0.4	716.73
337.71 K, 1150 kPa, x1 = 0.8992	716.73
337.71 K, 5000 kPa, x1 = 0.4	722.27
337.71 K, 5000 kPa, x1 = 0.8992	722.27
337.71 K, 9990 kPa, x1 = 0.4	728.91
337.71 K, 9990 kPa, x1 = 0.8992	728.91
337.71 K, 14960 kPa, x1 = 0.4	735.03
337.71 K, 14960 kPa, x1 = 0.8992	735.03
337.71 K, 19960 kPa, x1 = 0.4	740.75
337.71 K, 19960 kPa, x1 = 0.8992	740.75
